Read-outs that look alike come from different tables or passages of the source. Peptide text beside a SMILES is read from it.
What was measured:
[1] = tested on: experimental animals; details: cited from earlier work
[2] = target: p300 (Homo sapiens, UniProt Q09472); experiment: Affinity for p300 by isothermal titration calorimetry; type: binding; details: for Kd: isothermal titration calorimetry, p300, read-out: Kd (ITC); for Affinity for p300 (in words): ITC
Source text: Helix αA of HIF-1α C-TAD, shown in FIG. 1A and FIG. 1C, is critical for the interaction between the CH1 domain and HIF-1α, because mutation of its residues or hydroxylation of Asn803 is known to disrupt this complex and inhibit HIF-1α mediated transcription (Freedman et al., “Structural Basis for Recruitment of CBP/p300 by Hypoxia-inducible Factor-1α,” Proc. Nat'l Acad. Sci. USA 99:5367-72 (2002); Dames et al., “Structural Basis for Hif-1α/CBP Recognition in the Cellular Hypoxic Response,” Proc. Nat'1 Acad. Sci. USA 99:5271-6 (2002). Development of HBS helices as potential inhibitors of VEGF transcription was begun by mimicking the aA helix region of HIF-1. This helix consists of eight residues, […] (SEQ ID NO: 111), and features three residues, Asp-Cys-Glu, critical for binding with p300/CBP. Several linear peptides and their HBS α-helix analogs were designed to gauge the potential of these molecules to inhibit VEGF transcription in cell culture. Each unconstrained peptide and HBS helix was synthesized using the procedures described in (Dimartino et al., “Solid-phase Synthesis of Hydrogen-bond Surrogate-derived α-Helices,” Org. Lett. 7:2389-92 (2005); Chapman & Arora, “Optimized Synthesis of Hydrogen-bond Surrogate Helices: Surprising Effects of Microwave Heating on the Activity of Grubbs Catalysts,” Org. Lett. 8:5825-8 (2006)). The percent helicity of each peptide was determined using circular dichroism spectroscopy in 10 mM phosphate buffered saline as described in (Wang et al., “Evaluation of Biologically Relevant Short α-Helices Stabilized by a Main-chain Hydrogen-bond Surrogate,” J. Am. Chem. Soc. 128:9248-56 (2006)). The affinity of each peptide for p300 was measured by isothermal titration calorimetry analysis (Wiseman et al., “Rapid Measurement of Binding Constants and Heats of Binding Using a New Titration calorimeter,” Anal. Biochem. 179:131-7 (1989); Freire et al., “Isothermal Titration calorimetry,” Anal. Chem. 62:A950-A959 (1990); Chervenak & Toone, “Calorimetric Analysis of the Binding of Lectins with Overlapping Carhohydrate-binding Ligand Specificities,” Biochemistry 34:5685-95 (1995); Aki et al., “Competitive Binding of Drugs to the Multiple Binding Sites on Human Serum Albumin. A calorimetric Study,” J Thermal Anal. calorim. 57:36170 (1999); Graziano et al., “Linkage of Proton Binding to the Thermal Unfolding of Sso7d from the Hyperthermophilic Archaebacterium Sulfolobus solfataricus,” Int'l J. Biol. Macromolecules 26:45-53 (1999); Pluschke & Mutz, “Use of Isothermal Titration calorimetry in the Development of Molecularly Defined Vaccines,” J Thermal Anal. calorim. 57:377-88 (1999); Corbell et al., “A Comparison of Biological and calorimetric Analyses of Multivalent Glycodendrimer Ligands for Concanavalin A,” Tetrahedron-Asymmetry 11:95-111 (2000)). The ability of each peptide to downregulate VEGF transcription in cell culture was evaluated by […] quantitative RT-PCR, as described above. The cytotoxicity of each peptide was determined by monitoring cellular growth and population doubling in the presence of individual peptides at 1μM concentration.

[3] = tested on: MDA-MB-231-HRE-Luc cells; type: cell-based
Experimental: MDA-MB-231-HRE-Luc cells were maintained in high glucose Dulbecco's Modified Eagle's Medium (“DMEM”) supplemented with 10% fetal bovine serum and 0.4 g/L Geneticin (G418 sulfate, RPI Corporation). Cells were plated in 24-well dishes (BD Falcon) at a density of […] using 1 mL of a 6.5×10^4 cell/mL suspension. […] Cells were incubated for 6 hours at 37° C. in a humidified atmosphere with 5% CO2. Hypoxia was induced by adding desferoxamine mesylate (DFO, Sigma) to a final concentration of 300 μM, and cells were incubated for an additional 18 hours. Whole cell lysates were isolated by washing the cells twice with ice cold PBS and then adding 150 μL of Cell Culture Lysis Reagent (“CCLR,” Promega). Lysate was collected, centrifuged at 13,000 rpm at 4° C., aliquoted, and stored at −80° C. Luciferase assays were conducted according to the manufacturer's instructions (Promega) using a Turner TD-20e Luminometer. Relative light intensity measurements were normalized by performing a Bradford assay to determine the protein content of the lysate used in the luciferase assay. Briefly, 50 μL of cell lysate/luciferase assay reagent mix was added to 200 μL of Bradford reagent and 750 μL of Millipore water in a 1.5 mL cuvette. Protein standards were created in the range of 1 μg/mL to 10 μg/mL with the appropriate amount of a 1 mg/mL BSA solution. Absorbance was measured at 595 nm using a DU-800 spectrophotometer. The experiments were carried out in triplicate with the error bars calculated as standard error of the mean.

[4] = tested on: HIF-1α C-TAD and p300/CBP; details: literature (Kung et al. 2004); cited from earlier work
[5] = circular dichroism; details: 10 mM phosphate buffered saline (par. 0128, each peptide; pH given only for 22 and 25, Fig 6B), pH 7.4, ns °C
[6] = Percent helicity by circular dichroism spectroscopy; type: physicochemical; details: for % Helicity: 10 mM phosphate buffered saline
Source text: Helix αA of HIF-1α C-TAD, shown in FIG. 1A and FIG. 1C, is critical for the interaction between the CH1 domain and HIF-1α, because mutation of its residues or hydroxylation of Asn803 is known to disrupt this complex and inhibit HIF-1α mediated transcription (Freedman et al., “Structural Basis for Recruitment of CBP/p300 by Hypoxia-inducible Factor-1α,” Proc. Nat'l Acad. Sci. USA 99:5367-72 (2002); Dames et al., “Structural Basis for Hif-1α/CBP Recognition in the Cellular Hypoxic Response,” Proc. Nat'1 Acad. Sci. USA 99:5271-6 (2002). Development of HBS helices as potential inhibitors of VEGF transcription was begun by mimicking the aA helix region of HIF-1. This helix consists of eight residues, […] (SEQ ID NO: 111), and features three residues, Asp-Cys-Glu, critical for binding with p300/CBP. Several linear peptides and their HBS α-helix analogs were designed to gauge the potential of these molecules to inhibit VEGF transcription in cell culture. Each unconstrained peptide and HBS helix was synthesized using the procedures described in (Dimartino et al., “Solid-phase Synthesis of Hydrogen-bond Surrogate-derived α-Helices,” Org. Lett. 7:2389-92 (2005); Chapman & Arora, “Optimized Synthesis of Hydrogen-bond Surrogate Helices: Surprising Effects of Microwave Heating on the Activity of Grubbs Catalysts,” Org. Lett. 8:5825-8 (2006)). The percent helicity of each peptide was determined using circular dichroism spectroscopy in 10 mM phosphate buffered saline as described in (Wang et al., “Evaluation of Biologically Relevant Short α-Helices Stabilized by a Main-chain Hydrogen-bond Surrogate,” J. Am. Chem. Soc. 128:9248-56 (2006)). The affinity of each peptide for p300 was measured by isothermal titration calorimetry analysis (Wiseman et al., “Rapid Measurement of Binding Constants and Heats of Binding Using a New Titration calorimeter,” Anal. Biochem. 179:131-7 (1989); Freire et al., “Isothermal Titration calorimetry,” Anal. Chem. 62:A950-A959 (1990); Chervenak & Toone, “Calorimetric Analysis of the Binding of Lectins with Overlapping Carhohydrate-binding Ligand Specificities,” Biochemistry 34:5685-95 (1995); Aki et al., “Competitive Binding of Drugs to the Multiple Binding Sites on Human Serum Albumin. A calorimetric Study,” J Thermal Anal. calorim. […] The ability of each peptide to downregulate VEGF transcription in cell culture was evaluated by […] quantitative RT-PCR, as described above. The cytotoxicity of each peptide was determined by monitoring cellular growth and population doubling in the presence of individual peptides at 1μM concentration.

[7] = tested on: VEGF transcription in HeLa cells; experiment: VEGF gene expression by real-time qRT-PCR; type: cell-based; details: FIG. 7
Source text: Real-time qRT-PCR was used to determine the effect of HBS helices on the level of expression of VEGF and GLUT1 genes in HeLa and MCF-7 cells, both under normoxic and hypoxic conditions. For VEGF analysis, the forward primer 5′AGGCCAGCACATAGGAGAGA-3′ (SEQ ID NO: 105) and reverse primer 5′TTTCCCTTTCCTCGAACTGA-3′ (SEQ ID NO:106) were used to amplify a 104-bp fragment from the […] of the gene. For GLUT1 (SLC2A1) analysis, the following sequences were utilized to yield a product of 179 bp: forward sequence 5′-TAGAAACATGGTTTTGAAATGC-3′ (SEQ ID NO:107), reverse sequence 5′-GGTAACAGGGATCAAACAGATT-3′ (SEQ ID NO:108). The levels of expression of β-glucuronidase were used as endogenous controls, since they remain unchanged under experimental conditions. The forward primer 5′-CTCATTTGGAATTTTGCCGATT-3′ (SEQ ID NO:109) and reverse primer 5′-CCGAGTGAAGATCCCCTTTTTA-3′ (SEQ ID NO:110) were used for this gene. Temperature cycling and detection of the SYBR green emission were performed with an ABI 7300 real-time PCR instrument. Data were analyzed with ABI Sequence Detection System, version 1.2. Statistical analysis was performed with the data from six independent experiments. The experiment was performed with Applied Biosystems SYBR Green RT-PCR master mix.

[8] = target: T1, p300 (UniProt Q09472 323-423, limits assumed); experiment: isothermal titration calorimetry
T1 construct: also called p300/CBP
T1 sequence (Q09472 323-423 limits assumed): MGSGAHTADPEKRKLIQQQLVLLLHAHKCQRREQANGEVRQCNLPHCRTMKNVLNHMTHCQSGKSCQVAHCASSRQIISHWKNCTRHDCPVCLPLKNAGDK

CN1C(=O)[C@@]23C[C@]4([C@]56C[C@@]78SS[C@@](CO)(C(=O)N7[C@H]5Nc5ccccc56)N(C)C8=O)c5ccccc5N[C@@H]4N2C(=O)[C@]1(CO)SS3 [chaetocin 1, chaetocin]
Side effects in experimental animals [1]: induced coagulative necrosis, anemia, and leukocytosis

CN1C(=O)[C@]2(Cc3cn([C@]45C[C@@]67SS[C@@](CO)(C(=O)N6[C@H]4Nc4ccccc45)N(C)C7=O)c4ccccc34)SS[C@@]1(CO)C(=O)N2C [Compound 26, chetomin, reference compound]
Kd [2]: 120 nM
% Transcription inhibition in cell culture ([3]; 200 nM chetomin, qRT-PCR or luciferase, method not given): 50 ± 5%
Inhibition of VEGF transcription in cell culture (in words) [3]: more potent inhibitor of VEGF transcription than HBS helix 22
Side effects in experimental animals [1]: induced coagulative necrosis, anemia, and leukocytosis
Inhibition of interaction between HIF-1α C-TAD and p300/CBP [4]: inhibit the interaction between HIF-1α C-TAD and p300/CBP

CC(C)[C@H](NC(=O)[C@H](CCC(=O)O)NC(=O)[C@H](CS)NC(=O)[C@H](CC(=O)O)NC(=O)[C@H](Cc1ccc(O)cc1)N1CC=CCCC(=O)N[C@@H]([C@@H](C)O)C(=O)N[C@@H](C)C1=O)C(=O)N[C@@H](CC(N)=O)C(=O)N[C@@H](C)C(N)=O [Compound 20]
helicity [5]: 44%
Kd [2]: 540 nM
% Transcription inhibition in cell culture (Luc) ([3]; 1000 nM): 0 ± 5 (Luc) %

CC(C)[C@H](NC(=O)[C@H](CCC(=O)O)NC(=O)[C@@H](NC(=O)[C@H](CC(=O)O)NC(=O)[C@H](Cc1ccc(O)cc1)N1CC=CCCC(=O)N[C@@H]([C@@H](C)O)C(=O)N[C@@H](C)C1=O)C(C)C)C(=O)N[C@@H](CC(N)=O)C(=O)N[C@@H](C)C(N)=O [Compound 21]
helicity [5]: 16%
Kd [2]: 690 ± 60 nM

CC(=O)N[C@H](C(=O)N[C@@H](C)C(=O)N[C@@H](Cc1ccc(O)cc1)C(=O)N[C@@H](CC(=O)O)C(=O)N[C@@H](CS)C(=O)N[C@@H](CCC(=O)O)C(=O)N[C@H](C(=O)N[C@@H](CC(N)=O)C(=O)N[C@@H](C)C(N)=O)C(C)C)[C@@H](C)O [Compound 24] (Ac-TAYDCEVNA-NH2)
helicity [5]: 15%
% Helicity [6]: 15%
Affinity for p300 (in words) [2]: bound p300 with significant affinities
Inhibition of VEGF transcription in cell culture (in words) [3]: failed to inhibit VEGF transcription in cell culture
% Transcription inhibition in cell culture (Luc) ([3]; luciferase assay, 1 μM peptide): 15 ± 5%

CC(=O)N[C@H](C(=O)N[C@@H](CO)C(=O)N[C@@H](Cc1ccc(O)cc1)C(=O)N[C@@H](CC(=O)O)C(=O)N[C@@H](CS)C(=O)N[C@@H](CCC(=O)O)C(=O)N[C@H](C(=O)N[C@@H](CC(N)=O)C(=O)N[C@@H](C)C(N)=O)C(C)C)[C@@H](C)O [Compound 23] (Ac-TSYDCEVNA-NH2)
helicity [5]: 14%
% Helicity [6]: 14%
Affinity for p300 (in words) [2]: bound p300 with significant affinities
Inhibition of VEGF transcription in cell culture (in words) [3]: failed to inhibit VEGF transcription in cell culture
% Transcription inhibition in cell culture (Luc) ([3]; luciferase assay, 1 μM peptide): 10 ± 5%

CC(=O)NCC(=O)N[C@H](C(=O)N[C@@H](C)C(=O)N[C@@H](C)C(=O)N[C@@H](CC(=O)O)C(=O)N[C@@H](CS)C(=O)N[C@@H](CCC(=O)O)C(=O)N[C@@H](Cc1ccc(O)cc1)C(=O)N[C@@H](CC(N)=O)C(=O)N[C@@H](C)C(=O)N[C@@H](CCCNC(=N)N)C(N)=O)[C@@H](C)O [Compound 25] (Ac-GTAADCEYNAR-NH2)
helicity [5]: 15%
Helical content (in words) [6]: appears to be unstructured
% Helicity [6]: 15%
% Transcription inhibition in cell culture (Luc & RT-PCR) ([3]; luciferase assay and qRT-PCR, 1 μM peptide): 8 ± 3%
Inhibition of VEGF transcription in HeLa cells (in words) [7]: negligible effect

C[C@H](NC(=O)[C@H](CC(N)=O)NC(=O)[C@H](Cc1ccc(O)cc1)NC(=O)[C@H](CCC(=O)O)NC(=O)[C@H](CS)NC(=O)[C@H](CC(=O)O)NC(=O)[C@H](C)N1CC=CCCC(=O)N[C@@H]([C@@H](C)O)C(=O)N[C@@H](C)C1=O)C(=O)N[C@@H](CCCNC(=N)N)C(N)=O [Compound 22]
helicity [5]: 53%
Kd [2]: 420 ± 35 nM

B1: peptide 25 (AcGTAADCEYNAR-NH2) (peptide)
peptide: Ac-GTAADCEYNAR-NH2
notes: Unconstrained analog of HBS helix 22; also called linear control peptide 25; control peptide 25
Kd [8]: 825 nM

B2: peptide 23 (AcTSYDCEVNA-NH2) (peptide)
peptide: Ac-TSYDCEVNA-NH2
notes: also called linear peptide 23; unconstrained peptide 23
Kd [8]: 1350 nM

B3: peptide 24 (AcTAYDCEVNA-NH2) (peptide)
peptide: Ac-TAYDCEVNA-NH2
notes: Unconstrained analog of HBS peptide 20 (alanine in place of serine-797); also called linear peptide 24; unconstrained peptide 24
Kd [8]: 1220 nM
